What was measured:
Format in all cases: cell-based, HIV-1
[1] = test system: HIV strain L100I; test: Cellular anti-HIV assay in MT4 LTR-EGFP cells, mutant L100I; conditions: Human immunodeficiency virus 1, read-out: L100I pEC50 (converted)
Description: (§1) Because of the increasing emergence of drug resistant HIV strains, the present compounds were tested for their potency against clinically isolated HIV strains harbouring several mutations. These mutations are associated with resistance to reverse transcriptase inhibitors and result in viruses that show various degrees of phenotypic cross-resistance to the currently commercially available drugs such as for instance AZT and delavirdine.
(§2) The antiviral activity of the compound of the present invention has been evaluated in the presence of wild type HIV and HIV mutants bearing mutations at the reverse transcriptase gene. The activity of the compounds is evaluated using a cellular assay which was performed according to the following procedure.
(§3) The human T-cell line MT4 is engineered with Green Fluorescent Protein (GFP) and an HIV-specific promoter, HIV-1 long terminal repeat (LTR). This cell line is designated MT4 LTR-EGFP, and can be used for the in vitro evaluation of anti-HIV activity of investigational compounds. In HIV-1 infected cells, the Tat protein is produced which upregulates the LTR promotor and finally leads to stimulation of the GFP reporter production, allowing to measure ongoing HIV-infection fluorometrically. Analogously, MT4 cells are engineered with GFP and the constitutional cytomegalovirus (CMV) promotor. This cell line is designated MT4 CMV-EGFP, and can be used for the in vitro evaluation of cytotoxicity of investigational compounds. In this cell line, GFP levels are comparably to those of infected MT4 LTR-EGFP cells. Cytotoxic investigational compounds reduce GFP levels of mock-infected MT4 CMV-EGFP cells.
(§4) Effective concentration values such as 50% effective concentration (EC50) can be determined and are usually expressed in μM. An EC50 value is defined as the concentration of test compound that reduces the fluorescence of HIV-infected cells by 50%. The 50% cytotoxic concentration (CC50 in μM) is defined as the concentration of test compound that reduces fluorescence of the mock-infected cells by 50%. The ratio of CC50 to EC50 is defined as the selectivity index (SI) and is an indication of the selectivity of the anti-HIV activity of the inhibitor. The ultimate monitoring of HIV-1 infection and cytotoxicity is done using a scanning microscope. Image analysis allows very sensitive detection of viral infection. Measurements are done before cell necrosis, which usually takes place about five days after infection, in particular measurements are performed three days after infection.
(§5) The columns IIIB, L100I, etc. in the table list the pEC50 values against various strains IIIB, L100I, etc.

[2] = test system: HIV strain L100I + K103N; test: Cellular anti-HIV assay in MT4 LTR-EGFP cells, mutant L100I + K103N; conditions: Human immunodeficiency virus 1, 72 h, read-out: L100I + K103N pEC50 (converted)
Description: as §1, §2, §3, §4, §5

[3] = test system: HIV strain Y188L; test: Cellular anti-HIV assay in MT4 LTR-EGFP cells, mutant Y188L; conditions: Human immunodeficiency virus 1, read-out: Y188L pEC50 (converted)
Description: as §1, §2, §3, §4, §5

[4] = test system: HIV strain K103N + Y181C; test: Cellular anti-HIV assay in MT4 LTR-EGFP cells, mutant K103N + Y181C; conditions: Human immunodeficiency virus 1, 72 h, read-out: K103N + Y181C pEC50 (converted)
Description: as §1, §2, §3, §4, §5

[5] = test system: HIV strain IIIB (wild type); test: Cellular anti-HIV assay in MT4 LTR-EGFP cells, strain IIIB (wild type); selectivity index versus cytotoxicity in mock-infected MT4 CMV-EGFP cells; conditions: for EC50: Human immunodeficiency virus 1, 72 h, wild type HIV strain IIIB, MT4 LTR-EGFP cells, fluorescence, three days after infection, read-out: IIIB pEC50 (converted); for IIIB pSi: selectivity index = ratio of CC50 (mock-infected MT4 CMV-EGFP cells) to EC50 (IIIB), given as p value
Description: as §2, §3, §4, §5
Strain IIIB is wild type HIV strain

[6] = test system: HIV strain K103N; test: Cellular anti-HIV assay in MT4 LTR-EGFP cells, mutant K103N; conditions: Human immunodeficiency virus 1, read-out: K103N pEC50 (converted)
Description: as §1, §2, §3, §4, §5

[7] = test system: HIV strain Y181C; test: Cellular anti-HIV assay in MT4 LTR-EGFP cells, mutant Y181C; conditions: Human immunodeficiency virus 1, read-out: Y181C pEC50 (converted)
Description: as §1, §2, §3, §4, §5

[8] = test system: HIV strain MDR; test: Cellular anti-HIV assay in MT4 LTR-EGFP cells, MDR strain; conditions: Human immunodeficiency virus 1, read-out: MDR pEC50 (converted)
Description: as §1, §2, §3, §4, §5
MDR refers to a strain that contains mutations L100I, K103N, Y181C, E138G, V1791, L2214F, V278V/I and A327A/V in HIV reverse transcriptase.

| SMILES | EC50 [1] | EC50 [2] | EC50 [3] | EC50 [4] | EC50 [5] | IIIB pSi [5] | EC50 [6] | EC50 [7] | EC50 [8] |
| --- | --- | --- | --- | --- | --- | --- | --- | --- | --- |
| Cc1cc(/C=C/C#N)cc(C)c1Nc1nc(Nc2ccc(C#N)cc2)ncc1C(=O)N1CCCCC1 [Compound 2] | 63.1 nM | 200 nM | 398 nM | 501 nM | 3.16 nM | >3.90 | 12.6 nM | 126 nM | 10000 nM |
| Cc1cc(/C=C/C#N)cc(C)c1Nc1nc(Nc2ccc(C#N)cc2)ncc1C(=O)Nc1ccccn1 [Compound 3] | 5.01 nM | 12.6 nM | 25.1 nM | 63.1 nM | 2 nM | 4.00 | 3.16 nM | 15.8 nM | 2510 nM |
| Cc1cc(/C=C/C#N)cc(C)c1Nc1nc(Nc2ccc(C#N)cc2)ncc1C(=O)N(C)c1ccccc1 [Compound 5] | 25.1 nM | 50.1 nM | 100 nM | 158 nM | 5.01 nM | >3.70 | 10 nM | 100 nM | 3980 nM |
| Cc1cc(/C=C/C#N)cc(C)c1Nc1nc(Nc2ccc(C#N)cc2)ncc1C(=O)N1CCN(C)CC1 [Compound 6] | 158 nM | 1260 nM | 316 nM | 398 nM | 1.58 nM | >4.20 | 5.01 nM | 100 nM | 10000 nM |
| Cc1cc(/C=C/C#N)cc(C)c1Nc1nc(Nc2ccc(C#N)cc2)ncc1C(=O)N(C)CCO [Compound 7] | 7.94 nM | 50.1 nM | 50.1 nM | 63.1 nM | 1.58 nM | 4.00 | 2 nM | 20 nM | 2000 nM |
| COCCCNC(=O)c1cnc(Nc2ccc(C#N)cc2)nc1Nc1c(C)cc(/C=C/C#N)cc1C [Compound 9] | 5.01 nM | 25.1 nM | 15.8 nM | 20 nM | 2.51 nM | >4.00 | 3.16 nM | 12.6 nM | 1000 nM |
| Cc1cc(/C=C/C#N)cc(C)c1Nc1nc(Nc2ccc(C#N)cc2)ncc1C(=O)NCC1COC(C)(C)O1 (stereo not shown) [Compound 10] | 3.98 nM | 39.8 nM | 20 nM | 63.1 nM | 2.51 nM | >4.00 | 3.16 nM | 15.8 nM | 501 nM |
| CCOC(=O)CN(C)C(=O)c1cnc(Nc2ccc(C#N)cc2)nc1Nc1c(C)cc(/C=C/C#N)cc1C [Compound 11] | 7.94 nM | 50.1 nM | 25.1 nM | 79.4 nM | 2 nM | 3.40 | 3.98 nM | 39.8 nM | 1580 nM |
| Cc1cc(/C=C/C#N)cc(C)c1Nc1nc(Nc2ccc(C#N)cc2)ncc1C(=O)NCC1CCCO1 (stereo not shown) [Compound 12] | 2.51 nM | 20 nM | 10 nM | 12.6 nM | 1.26 nM | 4.10 | 2.51 nM | 15.8 nM | 1000 nM |
| CCOC(=O)CCNC(=O)c1cnc(Nc2ccc(C#N)cc2)nc1Nc1c(C)cc(/C=C/C#N)cc1C [Compound 14] | 2.51 nM | 15.8 nM | 12.6 nM | 10 nM | 2.51 nM | >4.00 | 2.51 nM | 12.6 nM | 631 nM |
| Cc1cc(/C=C/C#N)cc(C)c1Nc1nc(Nc2ccc(C#N)cc2)ncc1C(=O)NCc1ccncc1 [Compound 15] | 12.6 nM | 63.1 nM | 20 nM | 20 nM | 3.16 nM | 3.70 | 3.16 nM | 15.8 nM | 200 nM |
| Cc1cc(/C=C/C#N)cc(C)c1Nc1nc(Nc2ccc(C#N)cc2)ncc1C(=O)Nc1cccc(Cl)c1 [Compound 16] | 79.4 nM | 501 nM | 501 nM | 316 nM | 25.1 nM | 2.60 | 3.98 nM | 200 nM | 7940 nM |
| Cc1cc(/C=C/C#N)cc(C)c1Nc1nc(Nc2ccc(C#N)cc2)ncc1C(=O)NCc1ccco1 [Compound 19] | 3.98 nM | 50.1 nM | 20 nM | 20 nM | 3.98 nM | 3.60 | 3.98 nM | 20 nM | 1000 nM |
| CONC(=O)c1cnc(Nc2ccc(C#N)cc2)nc1Nc1c(C)cc(/C=C/C#N)cc1C [Compound 23] | 5.01 nM | 12.6 nM | 15.8 nM | 7.94 nM | 3.98 nM | >3.80 | – | 15.8 nM | 794 nM |
| Cc1ccc(CNC(=O)c2cnc(Nc3ccc(C#N)cc3)nc2Nc2c(C)cc(/C=C/C#N)cc2C)o1 [Compound 24] | 25.1 nM | 79.4 nM | 79.4 nM | 50.1 nM | 15.8 nM | 3.00 | – | 25.1 nM | 5010 nM |
| COc1ccccc1CNC(=O)c1cnc(Nc2ccc(C#N)cc2)nc1Nc1c(C)cc(/C=C/C#N)cc1C [Compound 27] | 50.1 nM | – | 79.4 nM | 39.8 nM | 6.31 nM | >3.60 | 7.94 nM | 39.8 nM | 3160 nM |
| Cc1cccc(CNC(=O)c2cnc(Nc3ccc(C#N)cc3)nc2Nc2c(C)cc(/C=C/C#N)cc2C)c1 [Compound 28] | 50.1 nM | – | 126 nM | 50.1 nM | 15.8 nM | 3.10 | 15.8 nM | 79.4 nM | 7940 nM |
| Cc1cc(/C=C/C#N)cc(C)c1Nc1nc(Nc2ccc(C#N)cc2)ncc1C(=O)NCCc1ccccc1 [Compound 31] | 31.6 nM | – | 79.4 nM | 50.1 nM | 15.8 nM | 3.10 | 15.8 nM | 63.1 nM | 10000 nM |
| Cc1cc(/C=C/C#N)cc(C)c1Nc1nc(Nc2ccc(C#N)cc2)ncc1C(=O)NCCc1cccc(F)c1 [Compound 32] | 39.8 nM | – | 100 nM | 79.4 nM | 12.6 nM | 3.10 | 15.8 nM | 79.4 nM | 10000 nM |
| CCOC(=O)CCCNC(=O)c1cnc(Nc2ccc(C#N)cc2)nc1Nc1c(C)cc(/C=C/C#N)cc1C [Compound 45] | 6.31 nM | – | 20 nM | 15.8 nM | 2.51 nM | >4.00 | 2 nM | – | 1000 nM |
| Cc1cc(/C=C/C#N)cc(C)c1Nc1nc(Nc2ccc(C#N)cc2)ncc1C(=O)NCCC#N [Compound 46] | 7.94 nM | 15.8 nM | 31.6 nM | 39.8 nM | 7.94 nM | >3.50 | 3.98 nM | – | 158 nM |
| Cc1cc(/C=C/C#N)cc(C)c1Oc1nc(Nc2ccc(C#N)cc2)ncc1C(=O)NCc1ccncc1 [Compound 58] | – | 316 nM | 158 nM | 100 nM | 2 nM | >4.10 | 6.31 nM | – | 3160 nM |
